Source: article PMC7078479, “Sulfamoyl Heteroarylcarboxylic Acids as Promising Metallo-β-Lactamase Inhibitors for Controlling Bacterial Carbapenem Resistance” (mBio, 2020)

Legend:
IMP-1 = target: T1, IMP-1 (Serratia marcescens, UniProt P52699); assay: Library screening, nitrocefin hydrolysis by IMP-1; assay type: biochemical; conditions: 100 μM compound, 10 nM IMP-1, 100 μM nitrocefin, 1 h
T1 construct: made in house
Excerpt: Screening compounds were provided from the curated collection of an in-house small-molecule chemical library (the chemical library of the Institute of Transformative Bio-Molecules [ITbM]). The library is composed of structurally diverse molecules, including synthetic molecules with unknown activity, known enzyme inhibitors, approved drugs, and natural products. Some of these molecules are commercially available from several worldwide chemical suppliers, whereas some are structurally novel molecules synthesized in-house by ITbM. All compounds were dissolved in dimethyl sulfoxide (DMSO) at a concentration of 10 mM and stored at −20°C until further use. We screened 22,671 compounds in 96-well flat plates using nitrocefin as a reporter substrate ([37]). Each well included 20 mM HEPES-NaOH buffer (pH 7.5) containing 10 nM IMP-1, 100 μM nitrocefin, and 100 μM concentrations of the tested compounds. The absorbance (Abs) at 482 nm was measured after incubation for 1 h at room temperature. The inhibitory effect of compounds against IMP-1 was evaluated using the following equation: Residual ratio=Abs482 nm compound/Abs482 nm no compound

E. coli DH5α/pBC-IMP-1 = assay: Susceptibility and checkerboard testing, IMP-1-producing E. coli; assay type: cell-based, Escherichia coli
Method: (§1) MICs were determined via the microdilution method according to the CLSI guidelines ([38]). In brief, 5 × 10^4 bacterial cells were inoculated in 100 μl of cation-adjusted Mueller-Hinton broth (Becton, Dickinson and Company, Franklin Lakes, NJ) containing the β-lactams and appropriately diluted inhibitors. The final concentration of DMSO was maintained at 2% in the assays. The tested plates were then incubated at 35°C for 16 to 20 h. The MIC value was determined as the lowest concentration of tested β-lactams where no bacterial growth was visibly observed. The optical density at 600 nm (OD600) value was measured using a plate reader for drawing the heat maps. The FIC index value was calculated using the following equation: FIC index=MIC of β-lactam with inhibitor/MIC of β-lactam alone+MIC of inhibitor with β-lactam/MIC of inhibitor alone
(§2) Unless noted otherwise, the FIC index was defined as the lowest value among all obtained values. The synergistic effect was defined as the effect observed when the FIC index value was ≤0.5.

E. coli DH5α/pBC-NDM-1 = assay: Susceptibility and checkerboard testing, NDM-1-producing E. coli; assay type: cell-based, Escherichia coli; conditions: Escherichia coli, read-out: MIC of MPM without inhibitor
Method: as §1, §2

E. coli DH5α/pBC-TMB-2 = assay: Susceptibility testing, TMB-2-producing E. coli; assay type: cell-based; conditions: Escherichia coli, read-out: MIC of MPM without inhibitor
Method: as §1

[1] = tested on: E. coli BL21(DE3)/pET-SIM-1; assay: Susceptibility testing, SIM-1-producing E. coli; assay type: cell-based; conditions: Escherichia coli, read-out: MIC of MPM without inhibitor
Method: as §1

[2] = tested on: P. aeruginosa PAO1/pME-IMP-1; assay: Susceptibility testing, IMP-1-producing P. aeruginosa PAO1; assay type: cell-based; conditions: Pseudomonas aeruginosa, PAO1, read-out: MIC of MPM without inhibitor
Method: as §1

[3] = tested on: P. aeruginosa PAO1/pME-NDM-1; assay: Susceptibility testing, NDM-1-producing P. aeruginosa PAO1; assay type: cell-based; conditions: Pseudomonas aeruginosa, PAO1, read-out: MIC of MPM without inhibitor
Method: as §1

[4] = tested on: P. aeruginosa PAO1/pME-VIM-2; assay: Susceptibility testing, VIM-2-producing P. aeruginosa PAO1; assay type: cell-based; conditions: Pseudomonas aeruginosa, PAO1, read-out: MIC of MPM without inhibitor
Method: as §1

[5] = tested on: P. aeruginosa PAO1/pME6032; assay: Susceptibility testing, P. aeruginosa PAO1 with empty vector; assay type: cell-based; conditions: Pseudomonas aeruginosa, PAO1, read-out: MIC of MPM without inhibitor
Method: as §1

[6] = tested on: IMP-type MBL-producing Enterobacteriaceae; assay: Susceptibility testing, 19 IMP-type MBL-producing Enterobacteriaceae isolates; assay type: cell-based; conditions: read-out: MIC of MPM alone
Method: as §1

[7] = tested on: IMP-1-producing E. coli NUBL-24; assay: Susceptibility and checkerboard testing, E. coli NUBL-24; assay type: cell-based; conditions: Escherichia coli; E. coli NUBL-24 (blaIMP-1), MPM alone
Method: as §1, §2
The initial density of E. coli NUBL-24 (blaIMP-1) (MPM MIC, 8 μg/ml) was adjusted to approximately 5 × 10^6 CFU/ml. Either MPM (1 μg/ml) alone or SFC (10 μg/ml) alone or a combination of the two was added to the bacterial solution, and then incubation was performed at 37°C. LB broth containing only bacteria was used as a control. […]

[8] = tested on: IMP-1-producing E. coli NUBL-24; assay: Mouse infection model, E. coli NUBL-24, survival; assay type: in vivo, mice; conditions: SFC 100 mg/kg or MPM 0.2 mg/kg i.p. at 1 and 3 h after infection; within 48 h
Method: All experiments were approved by the Nagoya University Animal Ethics Committee, and all experiments were performed in a manner that minimized animal suffering. Male CD1 mice (4 weeks old; 20 to 25 g body weight) were purchased from Charles River Laboratories Japan (Yokohama, Japan). E. coli NUBL-24 (blaIMP-1) and K. pneumoniae MS5674 (blaNDM-1 and blaVIM-1) strains were inoculated on LB agar plates and grown for 18 h at 37°C. Bacteria were then scraped from the plates, and their concentration was adjusted to 5 × 10^6 to 1 × 10^7 CFU in saline solution containing 5% mucin; this solution was then i.p. injected into the mice. At 1 and 3 h after infection, saline solution, MPM, inhibitors, and a combination of MPM and inhibitor were i.p. injected. Mice were monitored for 7 days to formulate survival curves, after which they were euthanized by CO2 asphyxiation.

T1 sequence (P52699 19-246 limits assumed): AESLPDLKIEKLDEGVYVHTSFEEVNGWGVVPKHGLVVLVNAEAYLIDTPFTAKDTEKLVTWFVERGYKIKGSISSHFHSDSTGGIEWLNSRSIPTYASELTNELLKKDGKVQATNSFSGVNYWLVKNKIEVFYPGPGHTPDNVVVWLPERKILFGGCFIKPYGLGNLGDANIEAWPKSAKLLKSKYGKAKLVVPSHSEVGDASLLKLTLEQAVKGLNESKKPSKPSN

Question: `O=C([O-])C1=CS[C@@H]2/C(=C\c3cn4c(n3)COCC4)C(=O)N12.[Na+]` [BLI-489] was tested. Which “Residual ratio (Abs482 compound/no compound)” value (IMP-1) did it give?
Answer: < 0.6

Question: For `C[C@@H](O)[C@H]1C(=O)N2C(C(=O)O)=C(S[C@@H]3CN[C@H](C(=O)N(C)C)C3)[C@H](C)[C@H]12` [MPM, meropenem, reference compound], which “MIC of MPM without inhibitor” value (E. coli DH5α/pBC-IMP-1; E. coli DH5α/pBC-IMP-1) is on record?
Answer: 1 µg/mL

Question: What about the MIC (E. coli DH5α/pBC-IMP-1; Escherichia coli, read-out: MIC of MPM without inhibitor) of the same compound?
Answer: 1 µg/mL

Question: What about the MIC (E. coli DH5α/pBC-NDM-1) of the same compound?
Answer: 64 µg/mL

Question: What about the MIC (E. coli DH5α/pBC-TMB-2) of the same compound?
Answer: 16 µg/mL

Question: And the MIC [1]?
Answer: 16 µg/mL

Question: And the MIC [2]?
Answer: 128 µg/mL

Question: What about the MIC [3] of the same compound?
Answer: 8 µg/mL

Question: And the MIC [4]?
Answer: 32 µg/mL

Question: What about the MIC [5] of the same compound?
Answer: 0.5 µg/mL

Question: And the MIC [6]?
Answer: ≥ 2 µg/mL

Question: And the MIC [7]?
Answer: 8 µg/mL

Question: What about the “Rescue of infected mice by monotherapy” value [8] of the same compound?
Answer: failed to rescue mice
